Measurements as given in patent US20080161289A1, “Fused Thiazole Derivatives Having Affinity for the Histamine H3 Receptor” (Glaxo Group Limited, priority 2005, published 2008).

Biological target: T1, histamine H3 receptors (Homo sapiens, UniProt Q9Y5N1)
T1 construct: expressed in transfected cells; host or cells: CHO K1 cells carrying pSwitch, transfected with pGeneH3, induced with mifepristone; clone 3H3; membrane preparation
Assay: Histamine H3 functional antagonist assay ([35S]-GTPγS SPA on membranes from H3 cells)
Assay type: biochemical
Conditions: hydrochloride salts tested; H3 functional antagonist assay using membrane prepared from cultured H3 cells; averages of a number of experiments; read-out: functional pKi (fpKi) (converted)
From the text: A membrane preparation containing histamine H3 receptors may be prepared in accordance with the following procedures:
(i) Generation of Histamine H3 Cell Line
DNA encoding the human histamine H3 gene (Huvar, A. et al. (1999) Mol. Pharmacol. 55(6), 1101-1107) was cloned into a holding vector, pCDNA3.1 TOPO (InVitrogen) and its cDNA was isolated from this vector by restriction digestion of plasmid DNA with the enzymes BamHI and Not-1 and ligated into the inducible expression vector pGene (InVitrogen) digested with the same enzymes. The GeneSwitch™ system (a system where in transgene expression is switched off in the absence of an inducer and switched on in the presence of an inducer) was performed as described in U.S. Pat. Nos. 5,364,791; 5,874,534; and 5,935,934. Ligated DNA was transformed into competent DH5α E. coli host bacterial cells and plated onto Luria Broth (LB) agar containing Zeocin™ (an antibiotic which allows the selection of cells expressing the sh ble gene which is present on pGene and pSwitch) at 50 μg ml^−1. Colonies containing the re-ligated plasmid were identified by restriction analysis. DNA for transfection into mammalian cells was prepared from 250 ml cultures of the host bacterium containing the pGeneH3 plasmid and isolated using a DNA preparation kit (Qiagen Midi-Prep) as per manufacturers guidelines (Qiagen).
CHO K1 cells previously transfected with the pSwitch regulatory plasmid (InVitrogen) were seeded at 2×10e6 cells per T75 flask in Complete Medium, containing Hams F12 (GIBCOBRL, Life Technologies) medium supplemented with 10% v/v dialysed foetal bovine serum, L-glutamine, and hygromycin (100 μg ml^−1), 24 hours prior to use. Plasmid DNA was transfected into the cells using Lipofectamine plus according to the manufacturers guidelines (InVitrogen). 48 hours post transfection cells were placed into complete medium supplemented with 500 μg ml^−1 Zeocin™.
10-14 days post selection 10 nM Mifepristone (InVitrogen), was added to the culture medium to induce the expression of the receptor. 18 hours post induction cells were detached from the flask using ethylenediamine tetra-acetic acid (EDTA; 1:5000; InVitrogen), following several washes with phosphate buffered saline pH 7.4 and resuspended in Sorting Medium containing Minimum Essential Medium (MEM), without phenol red, and supplemented with Earles salts and 3% Foetal Clone II (Hyclone). Approximately 1×10e7 cells were examined for receptor expression by staining with a rabbit polyclonal antibody, 4a, raised against the N-terminal domain of the histamine H3 receptor, incubated on ice for 60 minutes, followed by two washes in sorting medium. Receptor bound antibody was detected by incubation of the cells for 60 minutes on ice with a goat anti rabbit antibody, conjugated with Alexa 488 fluorescence marker (Molecular Probes). Following two further washes with Sorting Medium, cells were filtered through a 50 μm Filcon™ (BD Biosciences) and then analysed on a FACS Vantage SE Flow Cytometer fitted with an Automatic Cell Deposition Unit. Control cells were non-induced cells treated in a similar manner. Positively stained cells were sorted as single cells into 96-well plates, containing Complete Medium containing 500 μg ml^−1 Zeocin™ and allowed to expand before reanalysis for receptor expression via antibody and ligand binding studies. One clone, 3H3, was selected for membrane preparation.
(ii) Membrane Preparation from Cultured Cells
All steps of the protocol are carried out at 4° C. and with pre-cooled reagents. The cell pellet is resuspended in 10 volumes of homogenisation buffer (50 mM N-2-hydroxyethylpiperazine-N′-2-ethanesulfonic acid (HEPES), 1 mM ethylenediamine tetra-acetic acid (EDTA), pH 7.4 with KOH, supplemented with 10e-6M leupeptin (acetyl-leucyl-leucyl-arginal; Sigma L2884), 25 μg/ml bacitracin (Sigma B0125), 1 mM phenylmethylsulfonyl fluoride (PMSF) and 2×10e-6M pepstain A (Sigma)). […]

T1 sequence (Q9Y5N1 whole entry): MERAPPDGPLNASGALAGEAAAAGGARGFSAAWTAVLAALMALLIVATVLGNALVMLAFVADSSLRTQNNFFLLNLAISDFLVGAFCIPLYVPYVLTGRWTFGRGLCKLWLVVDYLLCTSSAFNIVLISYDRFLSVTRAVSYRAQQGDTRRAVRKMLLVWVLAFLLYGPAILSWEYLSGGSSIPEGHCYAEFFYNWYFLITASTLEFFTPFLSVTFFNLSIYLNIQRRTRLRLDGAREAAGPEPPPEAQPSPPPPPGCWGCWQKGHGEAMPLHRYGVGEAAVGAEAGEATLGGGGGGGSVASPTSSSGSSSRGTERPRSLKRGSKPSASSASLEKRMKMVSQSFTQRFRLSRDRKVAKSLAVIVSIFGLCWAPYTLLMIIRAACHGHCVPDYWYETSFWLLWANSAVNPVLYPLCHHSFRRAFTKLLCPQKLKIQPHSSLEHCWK

| Ki | Structure (SMILES) |
| --- | --- |
| < 1.26 nM | N#Cc1ccc(N2CCC(c3nc4c(s3)CCN(C3CCC3)CC4)C2)cn1 (racemic) [Example E35, (±)-5-[3-(6-Cyclobutyl-5,6,7,8-tetrahydro-4H-[1,3]thiazolo[4,5-d]azepin-2-yl)-1-pyrrolidinyl]-2-pyridinecarbonitrile] |
| < 1.26 nM | Cc1ccc(N2CCC(c3nc4c(s3)CCN(C3CCC3)CC4)C2)cn1 (racemic) [Example E38, (±)-6-Cyclobutyl-2-[1-(6-methyl-3-pyridinyl)-3-pyrrolidinyl]-5,6,7,8-tetrahydro-4H-[1,3]thiazolo[4,5-d]azepine] |
| < 0.316 nM | Cc1cccc(N2CCC(c3nc4c(s3)CCN(C3CCC3)CC4)C2)n1 (racemic) [Example E114, (±)-6-Cyclobutyl-2-[1-(6-methyl-2-pyridinyl)-3-pyrrolidinyl]-5,6,7,8-tetrahydro-4H-[1,3]thiazolo[4,5-d]azepine] |
| < 1.26 nM | N#Cc1ccc(N2CCC(c3nc4c(s3)CCN(C3CCC3)CC4)C2)cn1 (single isomer, unassigned; (+)) [Example E37, (+)-5-[3-(6-Cyclobutyl-5,6,7,8-tetrahydro-4H-[1,3]thiazolo[4,5-d]azepin-2-yl)-1-pyrrolidinyl]-2-pyridinecarbonitrile] |
| < 0.316 nM | N#Cc1ccc(N2CCC(c3nc4c(s3)CCN(C3CCC3)CC4)C2)cn1 (single isomer, unassigned; (-)) [Example E36, (−)-5-[3-(6-Cyclobutyl-5,6,7,8-tetrahydro-4H-[1,3]thiazolo[4,5-d]azepin-2-yl)-1-pyrrolidinyl]-2-pyridinecarbonitrile] |
| < 31.6 nM | FC(F)(F)c1ccc(-c2nc3c(s2)CCN(C2CCC2)CC3)cc1 [Example E1, 6-Cyclobutyl-2-[4-(trifluoromethyl)phenyl]-5,6,7,8-tetrahydro-4H-[1,3]thiazolo[4,5-d]azepine] |
| < 0.316 nM | O=C1CCCN1c1ccc(-c2nc3c(s2)CCN(C2CCC2)CC3)cc1 [Example E3, 1-[4-(6-cyclobutyl-5,6,7,8-tetrahydro-4H-[1,3]thiazolo[4,5-d]azepin-2-yl)phenyl]-2-pyrrolidinone] |
| < 1.26 nM | c1cc(-c2nc3c(s2)CCN(C2CCC2)CC3)ccc1-c1csnn1 [Example E5, 6-Cyclobutyl-2-[4-(1,2,3-thiadiazol-4-yl)phenyl]-5,6,7,8-tetrahydro-4H-[1,3]thiazolo[4,5-d]azepine] |
| < 1.26 nM | Cc1ccc(C(=O)N2CCC(c3nc4c(s3)CCN(C3CCC3)CC4)CC2)cn1 [Example E8, 6-Cyclobutyl-2-{1-[(6-methyl-3-pyridinyl)carbonyl]-4-piperidinyl}-5,6,7,8-tetrahydro-4H-[1,3]thiazolo[4,5-d]azepine] |
| < 31.6 nM | O=C(c1ccc(C(F)(F)F)nc1)N1CCC(c2nc3c(s2)CCN(C2CCC2)CC3)CC1 [Example E10, 6-Cyclobutyl-2-(1-{[6-(trifluoromethyl)-3-pyridinyl]carbonyl}-4-piperidinyl)-5,6,7,8-tetrahydro-4H-[1,3]thiazolo[4,5-d]azepine] |
| < 0.316 nM | Cc1cccc(C(=O)N2CCC(c3nc4c(s3)CCN(C3CCC3)CC4)CC2)n1 [Example E11, 6-Cyclobutyl-2-{1-[(6-methyl-2-pyridinyl)carbonyl]-4-piperidinyl}-5,6,7,8-tetrahydro-4H-[1,3]thiazolo[4,5-d]azepine] |
| < 1.26 nM | Cc1cnc(C(=O)N2CCC(c3nc4c(s3)CCN(C3CCC3)CC4)CC2)cn1 [Example E12, 6-Cyclobutyl-2-{1-[(5-methyl-2-pyrazinyl)carbonyl]-4-piperidinyl}-5,6,7,8-tetrahydro-4H-[1,3]thiazolo[4,5-d]azepine] |
| < 0.316 nM | Cc1cncc(C(=O)N2CCC(c3nc4c(s3)CCN(C3CCC3)CC4)CC2)c1 [Example E13, 6-Cyclobutyl-2-{1-[(5-methyl-3-pyridinyl)carbonyl]-4-piperidinyl}-5,6,7,8-tetrahydro-4H-[1,3]thiazolo[4,5-d]azepine] |
| < 1.26 nM | Cc1ccc(C(=O)N2CCC(c3nc4c(s3)CCN(C3CCC3)CC4)CC2)cc1 [Example E14, 6-Cyclobutyl-2-{1-[(4-methylphenyl)carbonyl]-4-piperidinyl}-5,6,7,8-tetrahydro-4H-[1,3]thiazolo[4,5-d]azepine] |
| < 1.26 nM | Cc1cc(C(=O)N2CCC(c3nc4c(s3)CCN(C3CCC3)CC4)CC2)no1 [Example E15, 6-Cyclobutyl-2-{1-[(5-methyl-3-isoxazolyl)carbonyl]-4-piperidinyl}-5,6,7,8-tetrahydro-4H-[1,3]thiazolo[4,5-d]azepine] |
| < 1.26 nM | O=C(c1csnn1)N1CCC(c2nc3c(s2)CCN(C2CCC2)CC3)CC1 [Example E16, 6-Cyclobutyl-2-[1-(1,2,3-thiadiazol-4-ylcarbonyl)-4-piperidinyl]-5,6,7,8-tetrahydro-4H-[1,3]thiazolo[4,5-d]azepine] |
| < 1.26 nM | Cn1ccc(C(=O)N2CCC(c3nc4c(s3)CCN(C3CCC3)CC4)CC2)n1 [Example E17, 6-Cyclobutyl-2-{1-[(1-methyl-1H-pyrazol-3-yl)carbonyl]-4-piperidinyl}-5,6,7,8-tetrahydro-4H-[1,3]thiazolo[4,5-d]azepine] |
| < 1.26 nM | Cc1cc(C(=O)N2CCC(c3nc4c(s3)CCN(C3CCC3)CC4)CC2)on1 [Example E18, 6-Cyclobutyl-2-{1-[(3-methyl-5-isoxazolyl)carbonyl]-4-piperidinyl}-5,6,7,8-tetrahydro-4H-[1,3]thiazolo[4,5-d]azepine] |
| < 1.26 nM | Cc1ccc(N2CCC(c3nc4c(s3)CCN(C3CCC3)CC4)CC2)cn1 [Example E19, 6-Cyclobutyl-2-[1-(6-methyl-3-pyridinyl)-4-piperidinyl]-5,6,7,8-tetrahydro-4H-[1,3]thiazolo[4,5-d]azepine] |
| < 0.316 nM | N#Cc1ccc(N2CCC(c3nc4c(s3)CCN(C3CCC3)CC4)CC2)cn1 [Example E20, 5-[4-(6-Cyclobutyl-5,6,7,8-tetrahydro-4H-[1,3]thiazolo[4,5-d]azepin-2-yl)-1-piperidinyl]-2-pyridinecarbonitrile] |
| < 0.316 nM | NC(=O)c1ccc(N2CCC(c3nc4c(s3)CCN(C3CCC3)CC4)CC2)cn1 [Example E22, 5-[4-(6-Cyclobutyl-5,6,7,8-tetrahydro-4H-[1,3]thiazolo[4,5-d]azepin-2-yl)-1-piperidinyl]-2-pyridinecarboxamide] |
| < 1.26 nM | CN(C)C(=O)c1ccc(N2CCC(c3nc4c(s3)CCN(C3CCC3)CC4)CC2)cn1 [Example E24, 5-[4-(6-Cyclobutyl-5,6,7,8-tetrahydro-4H-[1,3]thiazolo[4,5-d]azepin-2-yl)-1-piperidinyl]-N,N-dimethyl-2-pyridinecarboxamide] |
| < 1.26 nM | Cc1ncccc1C(=O)N1CCC(c2nc3c(s2)CCN(C2CCC2)CC3)CC1 [Example E25, 6-Cyclobutyl-2-{1-[(2-methyl-3-pyridinyl)carbonyl]-4-piperidinyl}-5,6,7,8-tetrahydro-4H-[1,3]thiazolo[4,5-d]azepine] |
| < 0.316 nM | CN1CCN(c2ccc(-c3nc4c(s3)CCN(C3CCC3)CC4)cc2)C1=O [Example E26, 1-[4-(6-Cyclobutyl-5,6,7,8-tetrahydro-4H-[1,3]thiazolo[4,5-d]azepin-2-yl)phenyl]-3-methyl-2-imidazolidinone] |
| < 1.26 nM | O=C1NCCN1c1ccc(-c2nc3c(s2)CCN(C2CCC2)CC3)cc1 [Example E27, 1-[4-(6-Cyclobutyl-5,6,7,8-tetrahydro-4H-[1,3]thiazolo[4,5-d]azepin-2-yl)phenyl]-2-imidazolidinone] |
| < 0.316 nM | CN1CCN(c2ccc(-c3nc4c(s3)CCN(C3CCCC3)CC4)cc2)C1=O [Example E28, 1-[4-(6-Cyclopentyl-5,6,7,8-tetrahydro-4H-[1,3]thiazolo[4,5-d]azepin-2-yl)phenyl]-3-methyl-2-imidazolidinone] |
